Reference: US12012394B2, “Alpha-synuclein ligands” (Washington University, priority 2018, dated 2024)
Values joined by “and” are separate entries in the source; they are usually repeats but may differ in a detail not shown here. Equal values may be shown once.

Columns and labels:
[1] = target: Aβ fibrils (Homo sapiens (Human), UniProt P05067); experiment: Homologous competition radioligand binding assay, Aβ fibrils; conditions: 150 nM Aβ fibrils
Method: Synthetic Aβ1-42 peptide (1 mg) (Bachem, Torrance, CA) was first dissolved in 50 μl DMSO. An additional 925 μl of mQ-H2O was added. Finally, 25 μl 1M Tris-HCl pH 7.6 was added to bring the final peptide concentration to 222 μM (1 mg/ml). The dissolved peptide was incubated for 30 h at 37° C. with shaking at 1000 rpm in an Eppendorf Thermomixer. Fibril formation was confirmed by ThioT fluorescence. To determine the concentration of fibrils, the fibril reaction mix was centrifuged at 15,000×g for 15 min to separate fibrils from monomer. The concentration of Aβ monomer in the supernatant was determined in a BCA protein assay using a BSA standard curve that contained DMSO at a percentage equivalent to the samples. […]
These direct binding assays used a fixed concentration of either fibrils or PD/AD tissue and the radioligand (e.g., [^18F]28) and varying concentration ranges of corresponding homologous non-radiolabeled standard reference compound. […] Reactions were incubated at 37° C. for 1 h before quantifying bound radioligand. […] Filters containing the bound ligand were mixed with 150 μL of Optiphase Supermix scintillation cocktail (PerkinElmer) and counted immediately. […] The dissociation constant (Kd) and the maximal number of binding sites (Bmax) values were determined by fitting the data to the equation. […]

[2] = target: Banner seeded fibrils (Homo sapiens (Human), UniProt P37840); experiment: Saturation binding of [125I]TZ61-84 to Banner seeded fibrils; conditions: 100 nM Banner seeded fibrils, saturation binding
Method: The binding efficacy (Kd) of TZ-61-84 was determined using a modified protocol. Specifically, saturation plots of radiolabeled [^125I]TZ61-84 were obtained measuring total and nonspecific binding of TZ61-84 to 100 nM Banner seeded fibrils. The results are depicted in FIG. 15B-15D and that TZ61-84 has a high binding affinity to α-synuclein (Kd<1 nM).

Chain of Aβ fibrils (P05067 672-713): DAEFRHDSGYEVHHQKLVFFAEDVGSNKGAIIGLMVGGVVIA

- Kd [1]: 12 nM
- Kd [2]: 0.34 nM and 0.5 nM
Structure (SMILES): COc1ccc2nc(-c3csc(C=O)c3)ccc2c1 [TZ55-81]
